Values after ≈ are worked out from the molar mass of the structure shown.
Assays:
[1] = Loading of propofol into QCPAA or CePAA (solubilisation)
Protocol: Drug loading was carried out as described above. To determine the concentration of encapsulated drug, the solutions were filtered (0.45 μm) and the filtrates were dissolved in methanol and subsequently analysed using an ultraviolet-visible spectrophotometer at the wavelength of 272 nm. A propofol calibration graph was prepared using various standard solutions (0.012-0.16 mgml^−1, R^2=0.998). The filtered formulations were sized using photon correlation spectroscopy and imaged by scanning electron microscopy (SEM).

Caco-2 cells = test: Intracellular localisation study (PK4 fluorescence microscopy); assay type: cell-based, human; details: PK4 20 μM alone, 37° C.
From the text: The intracellular polymer uptake was studied using an experimental anticancer drug named PK4 (bis-naphthalimidopropyl spermine). […] Due to the inherent fluorescence of PK4, the uptake of PK4 into cells can be visualised using Fluorescence Microscopy. Caco-2 cells (human colorectal cancer cells) were maintained in Dulbecco's Modified Eagle's Medium (DMEM) supplemented with 10% foetal calf serum (FCS), 1% non-essential amino acids and 1% L-glutamine and 1% penicillin/streptomycin at 10% CO2, 95% humidity and 37° C. […] The controls were 1) polymer only solutions (0.1 μml^−1), 2) PK4 only solutions (20 μM) and 3) medium. At specific time intervals the cells were photographed using a Leica DMRB fluorescence microscopy (Leica Microsystems, UK). The experiment above was repeated with the cells incubated at 4° C. instead of 37° C.

[2] = Loading of griseofulvin into QCPAA aggregates (solubilisation); assay type: physicochemical; details: thermodynamic from solid; excess drug sonicated in distilled water, filtered; read-out: intrinsic (aqueous) solubility of griseofulvin
Protocol: Drug loading was then achieved by probe sonication of the drugs in the presence of polymer aggregates in distilled water. Polymer, drug solutions with varying polymer: drug weight ratios were prepared. […] The aqueous solubility of griseofulvin was determined by sonicating excess drugs in distilled water. The solution was then filtered and analysed as described earlier. A griseofulvin calibration curve was prepared using various standard solutions (1-30 μgml^−1, R^2=0.993).

CC(C)c1cccc(C(C)C)c1O [propofol]
solubility [1]: 112 µg/mL (≈ 628 µM)

O=C1c2cccc3cccc(c23)C(=O)N1CCCNCCCNCCCCNCCCNCCCN1C(=O)c2cccc3cccc(c23)C1=O [PK4, bis-naphthalimidopropyl spermine]
time until fluorescence was detected in cells (Caco-2 cells): 4.5 h

COC1=CC(=O)C[C@@H](C)[C@]12Oc1c(Cl)c(OC)cc(OC)c1C2=O [griseofulvin]
solubility [2]: 48.3 ± 1 µg/mL (≈ 137 µM)

— patent US20100029544A1, “Composition” (priority 2006, published 2010)
